According to ChEMBL document CHEMBL4118026, “Limaol: A Polyketide from the Benthic Marine Dinoflagellate Prorocentrum lima” (J Nat Prod, 2017):

How the values were obtained:
Format in all cases: functional, cell-based
[1] = tested on: HepG2; assay: Cytotoxicity against human HepG2 cells after 24 hrs by MTT assay; details: HepG2, 24 h
[2] = tested on: HCT-116; assay: Cytotoxicity against human HCT116 cells after 24 hrs by MTT assay; details: HCT-116, 24 h
[3] = tested on: N2a; assay: Cytotoxicity against mouse Neuro2a cells after 24 hrs by MTT assay

`C=C(CC(=C)CC(=C)C[C@H]1CC(C)=C[C@@]2(C[C@@H](O)[C@H]3O[C@H](C[C@@H](O)CC(=C)C[C@H]4O[C@H](C/C=C/CCO)C[C@@H](O)[C@@H]4O)[C@H](O)[C@@H](O)[C@@H]3O2)O1)CC(=C)C[C@@H](C)C[C@@H](C)O` gave an IC50 [1] of 3700 nM, an IC50 [2] of 7300 nM and an IC50 [3] of 9600 nM.

Work on `C=C1[C@@H](O)[C@@H]2O[C@]3(CC[C@H](/C=C/[C@@H](C)[C@@H]4CC(C)=C[C@@]5(O[C@H](C[C@@](C)(O)C(=O)O)CC[C@H]5O)O4)O3)CC[C@H]2O[C@@H]1[C@@H](O)C[C@H](C)[C@H]1O[C@@]2(CCCCO2)CC[C@H]1C` [OKADAIC ACID] yielded an IC50 [1] of 540 nM, an IC50 [2] of 670 nM and an IC50 [3] of 850 nM.
